The results in this text go back to publication PMC9861803, “A New ABCB1 Inhibitor Enhances the Anticancer Effect of Doxorubicin in Both In Vitro and In Vivo Models of NSCLC” (International Journal of Molecular Sciences, 2023).

The target of one series is ABCA1 (Mus musculus, UniProt P41233). As to the kind of experiment: radiolabelled cholesterol efflux to apoA-I from murine peritoneal macrophages. Type of series: cell-based.
Series [1] has as its target T1, breast cancer resistant protein (BCRP, ABCG2) (Homo sapiens, UniProt Q9UNQ0).
T1 sequence (Q9UNQ0 1-655): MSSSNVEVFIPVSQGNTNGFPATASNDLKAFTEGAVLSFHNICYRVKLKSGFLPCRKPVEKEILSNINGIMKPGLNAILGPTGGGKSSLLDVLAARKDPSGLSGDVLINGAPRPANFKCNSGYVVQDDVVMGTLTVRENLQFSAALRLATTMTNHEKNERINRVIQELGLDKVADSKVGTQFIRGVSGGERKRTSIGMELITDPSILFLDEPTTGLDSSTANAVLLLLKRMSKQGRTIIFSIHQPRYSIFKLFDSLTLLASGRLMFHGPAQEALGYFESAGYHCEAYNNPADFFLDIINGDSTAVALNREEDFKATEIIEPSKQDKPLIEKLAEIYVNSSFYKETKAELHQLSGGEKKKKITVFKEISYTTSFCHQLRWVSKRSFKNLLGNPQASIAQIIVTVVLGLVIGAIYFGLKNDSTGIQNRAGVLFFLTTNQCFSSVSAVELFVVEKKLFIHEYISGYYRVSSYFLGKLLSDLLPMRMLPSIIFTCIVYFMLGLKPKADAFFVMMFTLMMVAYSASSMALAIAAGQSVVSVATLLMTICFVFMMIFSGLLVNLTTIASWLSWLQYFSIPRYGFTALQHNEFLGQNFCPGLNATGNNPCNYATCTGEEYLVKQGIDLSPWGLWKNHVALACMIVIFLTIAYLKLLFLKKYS
In words: Hoechst […] accumulation assay in H460 cells. The series is classed as cell-based.

Sequence of ABCA1 (P41233 whole entry): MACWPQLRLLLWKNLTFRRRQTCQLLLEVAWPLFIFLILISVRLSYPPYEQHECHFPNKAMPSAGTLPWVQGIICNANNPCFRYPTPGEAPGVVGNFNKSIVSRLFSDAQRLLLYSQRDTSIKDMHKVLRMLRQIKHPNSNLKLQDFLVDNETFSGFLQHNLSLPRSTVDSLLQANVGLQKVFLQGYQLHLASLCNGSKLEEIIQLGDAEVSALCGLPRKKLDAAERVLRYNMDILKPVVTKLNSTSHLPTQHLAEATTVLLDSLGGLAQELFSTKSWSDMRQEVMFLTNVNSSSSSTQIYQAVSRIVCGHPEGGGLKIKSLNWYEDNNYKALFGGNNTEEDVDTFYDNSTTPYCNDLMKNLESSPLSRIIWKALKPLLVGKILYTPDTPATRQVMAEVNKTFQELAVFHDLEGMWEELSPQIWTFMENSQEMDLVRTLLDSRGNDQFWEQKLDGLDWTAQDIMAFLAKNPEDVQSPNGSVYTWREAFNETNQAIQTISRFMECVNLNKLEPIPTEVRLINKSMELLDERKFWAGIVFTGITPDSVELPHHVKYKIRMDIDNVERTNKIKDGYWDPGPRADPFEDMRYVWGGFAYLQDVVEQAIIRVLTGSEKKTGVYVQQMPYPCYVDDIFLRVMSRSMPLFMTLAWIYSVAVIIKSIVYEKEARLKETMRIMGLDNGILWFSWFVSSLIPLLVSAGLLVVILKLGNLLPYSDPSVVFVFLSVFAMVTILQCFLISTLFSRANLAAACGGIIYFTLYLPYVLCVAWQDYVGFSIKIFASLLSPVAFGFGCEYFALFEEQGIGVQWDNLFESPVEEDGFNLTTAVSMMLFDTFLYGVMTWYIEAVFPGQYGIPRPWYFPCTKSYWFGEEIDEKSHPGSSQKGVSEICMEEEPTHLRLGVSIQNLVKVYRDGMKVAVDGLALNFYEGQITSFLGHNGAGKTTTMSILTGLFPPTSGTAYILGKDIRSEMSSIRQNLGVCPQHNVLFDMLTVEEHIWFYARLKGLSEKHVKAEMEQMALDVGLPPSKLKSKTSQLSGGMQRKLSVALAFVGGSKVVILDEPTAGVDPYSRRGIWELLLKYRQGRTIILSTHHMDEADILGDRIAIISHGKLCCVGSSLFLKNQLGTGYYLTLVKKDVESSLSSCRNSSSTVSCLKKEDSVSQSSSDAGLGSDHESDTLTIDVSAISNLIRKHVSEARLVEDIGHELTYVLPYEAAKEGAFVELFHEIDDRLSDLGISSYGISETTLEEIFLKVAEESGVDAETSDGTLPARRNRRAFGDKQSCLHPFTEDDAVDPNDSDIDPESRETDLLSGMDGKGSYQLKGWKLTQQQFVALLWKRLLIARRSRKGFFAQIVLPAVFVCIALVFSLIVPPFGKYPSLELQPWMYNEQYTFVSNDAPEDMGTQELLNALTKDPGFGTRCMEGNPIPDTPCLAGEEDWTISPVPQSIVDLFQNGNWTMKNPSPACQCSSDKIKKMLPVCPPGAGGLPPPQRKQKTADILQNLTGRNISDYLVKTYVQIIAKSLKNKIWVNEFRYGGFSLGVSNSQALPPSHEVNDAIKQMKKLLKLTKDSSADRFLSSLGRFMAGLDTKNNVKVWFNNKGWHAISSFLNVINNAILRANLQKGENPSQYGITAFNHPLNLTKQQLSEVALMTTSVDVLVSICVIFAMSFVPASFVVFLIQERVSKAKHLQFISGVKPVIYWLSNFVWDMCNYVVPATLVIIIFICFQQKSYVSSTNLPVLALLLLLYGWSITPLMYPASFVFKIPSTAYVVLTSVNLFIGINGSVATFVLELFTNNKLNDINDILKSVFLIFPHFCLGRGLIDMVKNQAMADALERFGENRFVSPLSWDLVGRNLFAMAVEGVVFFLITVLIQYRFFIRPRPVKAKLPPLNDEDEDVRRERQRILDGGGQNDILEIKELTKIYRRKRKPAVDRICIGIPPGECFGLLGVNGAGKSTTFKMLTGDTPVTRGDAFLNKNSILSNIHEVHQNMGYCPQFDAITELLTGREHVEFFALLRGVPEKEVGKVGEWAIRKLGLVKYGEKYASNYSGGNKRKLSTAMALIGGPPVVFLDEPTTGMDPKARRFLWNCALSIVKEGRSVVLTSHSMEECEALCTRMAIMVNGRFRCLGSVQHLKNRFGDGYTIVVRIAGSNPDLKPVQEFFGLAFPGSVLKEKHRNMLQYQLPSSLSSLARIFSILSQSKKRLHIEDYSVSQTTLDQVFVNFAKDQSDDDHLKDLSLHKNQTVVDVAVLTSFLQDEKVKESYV

In the case of `CC(C)(Sc1cc(C(C)(C)C)c(O)c(C(C)(C)C)c1)Sc1cc(C(C)(C)C)c(O)c(C(C)(C)C)c1` [probucol], the “radiolabelled cholesterol efflux to apoA-I from murine peritoneal macrophages” value at ABCA1 was “probucol, the lead compound, significantly inhibited in a dose-dependent manner the ABCA1 activity”.
For `COc1ccc2c3c([nH]c2c1)[C@H](C=C(C)C)N1C(=O)[C@@H]2CCCN2C(=O)[C@@H]1C3` [fumetrimorgin C], in series [1], the “Hoechst 33342 accumulation assay in H460 cells” value was “the reference compound fumetrimorgin C, as expected, significantly inhibited the amount of Hoechst 33342-caused intracellular fluorescence”.
